Measured values published in PubChem BioAssay AID1918945 (Molecular Pharmacology Branch, DTP, NCI, 2023).

Test system: 883617-216-R-J1-PDC complex spheroid viability
Experiment: Anticancer human tumor 883617-216-R-J1-PDC patient-derived bladder carcinoma cell line growth inhibition
Conditions: for IC50: curve of first compound; for viability, T/C: stronger effect = lower value
In short: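 Drug combinations with the LSD1 inhibitor iadademstat tested on tumor cells co-cultured as spheroids with endothelial cells and mesenchymal stem cells. Concentrations descended in half-log increments from clinical Cmax or 10 microM.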

[1] = second compound 0.1 µM, first compound 0.00949 µM
[2] = second compound 0.1 µM, first compound 0.03 µM
[3] = second compound 0.1 µM, first compound 0.0949 µM
[4] = second compound 0.1 µM, first compound 0.3 µM
[5] = second compound 0.316 µM, first compound 0.00949 µM
[6] = second compound 0.316 µM, first compound 0.03 µM
[7] = second compound 0.316 µM, first compound 0.0949 µM
[8] = second compound 0.316 µM, first compound 0.3 µM
[9] = second compound 1 µM, first compound 0.00949 µM
[10] = second compound 1 µM, first compound 0.03 µM
[11] = second compound 1 µM, first compound 0.0949 µM
[12] = second compound 1 µM, first compound 0.3 µM
[13] = second compound 3.16 µM, first compound 0.00949 µM
[14] = second compound 3.16 µM, first compound 0.03 µM
[15] = second compound 3.16 µM, first compound 0.0949 µM
[16] = second compound 3.16 µM, first compound 0.3 µM
[17] = second compound 10 µM, first compound 0.00949 µM
[18] = second compound 10 µM, first compound 0.03 µM
[19] = second compound 10 µM, first compound 0.0949 µM
[20] = second compound 10 µM, first compound 0.3 µM
[21] = second compound 0.1 µM, first compound 0.0316 µM
[22] = second compound 0.1 µM, first compound 0.1 µM
[23] = second compound 0.1 µM, first compound 0.316 µM
[24] = second compound 0.1 µM, first compound 1 µM
[25] = second compound 0.1 µM, first compound 3.16 µM
[26] = second compound 0.1 µM, first compound 10 µM
[27] = second compound 0.316 µM, first compound 0.0316 µM
[28] = second compound 0.316 µM, first compound 0.1 µM
[29] = second compound 0.316 µM, first compound 0.316 µM
[30] = second compound 0.316 µM, first compound 1 µM
[31] = second compound 0.316 µM, first compound 3.16 µM
[32] = second compound 0.316 µM, first compound 10 µM
[33] = second compound 1 µM, first compound 0.0316 µM
[34] = second compound 1 µM, first compound 0.1 µM
[35] = second compound 1 µM, first compound 0.316 µM
[36] = second compound 1 µM, first compound 1 µM
[37] = second compound 1 µM, first compound 3.16 µM
[38] = second compound 1 µM, first compound 10 µM
[39] = second compound 3.16 µM, first compound 0.0316 µM
[40] = second compound 3.16 µM, first compound 0.1 µM
[41] = second compound 3.16 µM, first compound 0.316 µM
[42] = second compound 3.16 µM, first compound 1 µM
[43] = second compound 3.16 µM, first compound 3.16 µM
[44] = second compound 3.16 µM, first compound 10 µM
[45] = second compound 10 µM, first compound 0.0316 µM
[46] = second compound 10 µM, first compound 0.1 µM
[47] = second compound 10 µM, first compound 0.316 µM
[48] = second compound 10 µM, first compound 1 µM
[49] = second compound 10 µM, first compound 3.16 µM
[50] = second compound 10 µM, first compound 10 µM
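Further: exposure lasted seven days after three days of spheroid growth.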
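Wherever viability, T/C is given: 100% = DMSO vehicle control luminescence.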

Work on `Nc1ncn(C2CC(O)C(CO)S2)c(=O)n1` (stereo not given) + NC1CCC(NC2CC2c2ccccc2)CC1 yielded an IC50 (second compound 0.1 µM) of over 0.3 µM, an IC50 (second compound 0.316 µM) of over 0.3 µM and an IC50 (second compound 1 µM) of 0.291 µM. The IC50 (second compound 3.16 µM) was over 0.3 µM, the IC50 (second compound 10 µM) was over 0.3 µM and the viability, T/C (second compound 0.1 µM, first compound 0.000949 µM) was 106%. The viability, T/C (second compound 0.1 µM, first compound 0.003 µM) was 111%, the viability, T/C [1] was 101% and the viability, T/C [2] was 72.9%. For the same compound, the viability, T/C [3] was 59.1%, the viability, T/C [4] was 48.3% and the viability, T/C (second compound 0.316 µM, first compound 0.000949 µM) was 114%. It also gave a viability, T/C (second compound 0.316 µM, first compound 0.003 µM) of 110%, a viability, T/C [5] of 102% and a viability, T/C [6] of 68.3%. For the same compound, the viability, T/C [7] was 60.6%, the viability, T/C [8] was 52.8% and the viability, T/C (second compound 1 µM, first compound 0.000949 µM) was 113%. The viability, T/C (second compound 1 µM, first compound 0.003 µM) was 106%, the viability, T/C [9] was 97.1% and the viability, T/C [10] was 75.4%. For the same compound, the viability, T/C [11] was 57.5%, the viability, T/C [12] was 50.1% and the viability, T/C (second compound 3.16 µM, first compound 0.000949 µM) was 101%. The viability, T/C (second compound 3.16 µM, first compound 0.003 µM) was 106%, the viability, T/C [13] was 86.1% and the viability, T/C [14] was 72.8%. For the same compound, the viability, T/C [15] was 61.4%, the viability, T/C [16] was 53.7% and the viability, T/C (second compound 10 µM, first compound 0.000949 µM) was 110%. It also gave a viability, T/C (second compound 10 µM, first compound 0.003 µM) of 114%, a viability, T/C [17] of 91.3% and a viability, T/C [18] of 74.8%. For the same compound, the viability, T/C [19] was 67.7% and the viability, T/C [20] was 55.6%.
`COc1ccc([C@@H](O)c2cc(-c3ncnc4cc(N5CCOCC5)ccc34)c(F)cc2Cl)nn1` + NC1CCC(NC2CC2c2ccccc2)CC1 was tested, and the IC50 (second compound 0.1 µM) was 1.2 µM, the IC50 (second compound 0.316 µM) was 1.37 µM and the IC50 (second compound 1 µM) was 1.32 µM. The IC50 (second compound 3.16 µM) was 1.08 µM, the IC50 (second compound 10 µM) was 1.56 µM and the viability, T/C [21] was 97.8%. The viability, T/C [22] was 90.3%, the viability, T/C [23] was 72% and the viability, T/C [24] was 50.2%. The viability, T/C [25] was 38.2%, the viability, T/C [26] was 20.7% and the viability, T/C [27] was 103%. For the same compound, the viability, T/C [28] was 90.8%, the viability, T/C [29] was 73.6% and the viability, T/C [30] was 53.2%. For the same compound, the viability, T/C [31] was 38.5%, the viability, T/C [32] was 19.2% and the viability, T/C [33] was 101%. The viability, T/C [34] was 91.3%, the viability, T/C [35] was 83.2% and the viability, T/C [36] was 52.7%. For the same compound, the viability, T/C [37] was 35.1%, the viability, T/C [38] was 21% and the viability, T/C [39] was 97.6%. For the same compound, the viability, T/C [40] was 93.2%, the viability, T/C [41] was 73.7% and the viability, T/C [42] was 51.7%. It also gave a viability, T/C [43] of 32.1%, a viability, T/C [44] of 21.9% and a viability, T/C [45] of 100%. The viability, T/C [46] was 93.2%, the viability, T/C [47] was 70.2% and the viability, T/C [48] was 56.3%. For the same compound, the viability, T/C [49] was 41.4% and the viability, T/C [50] was 19.8%.
`O=C(c1cc(Cc2n[nH]c(=O)c3ccccc23)ccc1F)N1CCN(C(=O)C2CC2)CC1` + NC1CCC(NC2CC2c2ccccc2)CC1 gave an IC50 (second compound 0.1 µM) of 2.73 µM, an IC50 (second compound 0.316 µM) of 8.24 µM and an IC50 (second compound 1 µM) of 3.58 µM. For the same compound, the IC50 (second compound 3.16 µM) was 3.79 µM, the IC50 (second compound 10 µM) was 8.94 µM and the viability, T/C [21] was 100%. For the same compound, the viability, T/C [22] was 93%, the viability, T/C [23] was 93.3% and the viability, T/C [24] was 65.5%. For the same compound, the viability, T/C [25] was 49%, the viability, T/C [26] was 44.4% and the viability, T/C [27] was 107%. For the same compound, the viability, T/C [28] was 102%, the viability, T/C [29] was 99.7% and the viability, T/C [30] was 76.2%. The viability, T/C [31] was 60.1%, the viability, T/C [32] was 47.5% and the viability, T/C [33] was 90.8%. It also gave a viability, T/C [34] of 89.9%, a viability, T/C [35] of 90% and a viability, T/C [36] of 76.1%. For the same compound, the viability, T/C [37] was 50.8%, the viability, T/C [38] was 44.5% and the viability, T/C [39] was 94.1%. For the same compound, the viability, T/C [40] was 98.5%, the viability, T/C [41] was 88.6% and the viability, T/C [42] was 73.3%. For the same compound, the viability, T/C [43] was 51.3%, the viability, T/C [44] was 42.5% and the viability, T/C [45] was 104%. It also gave a viability, T/C [46] of 96.3%, a viability, T/C [47] of 89.7% and a viability, T/C [48] of 75.7%. The viability, T/C [49] was 58.1% and the viability, T/C [50] was 49.5%.
`O=C(C=Cc1cccc(S(=O)(=O)Nc2ccccc2)c1)NO` + NC1CC1c1ccc(-c2cccc(O)c2)cc1 was tested, and the IC50 (second compound 0.1 µM) was 0.0898 µM, the IC50 (second compound 0.316 µM) was 0.0898 µM and the IC50 (second compound 1 µM) was 0.0698 µM. The IC50 (second compound 3.16 µM) was 0.0598 µM, the IC50 (second compound 10 µM) was 0.0367 µM and the viability, T/C [1] was 105%. For the same compound, the viability, T/C [2] was 76.1%, the viability, T/C [3] was 44.8% and the viability, T/C [4] was 30.9%. The viability, T/C (second compound 0.1 µM, first compound 0.949 µM) was 12.9%, the viability, T/C (second compound 0.1 µM, first compound 3 µM) was 0.56% and the viability, T/C [5] was 116%. For the same compound, the viability, T/C [6] was 83.8%, the viability, T/C [7] was 42.7% and the viability, T/C [8] was 28.7%. The viability, T/C (second compound 0.316 µM, first compound 0.949 µM) was 12%, the viability, T/C (second compound 0.316 µM, first compound 3 µM) was 0.43% and the viability, T/C [9] was 106%. It also gave a viability, T/C [10] of 72.3%, a viability, T/C [11] of 38.5% and a viability, T/C [12] of 25.8%. For the same compound, the viability, T/C (second compound 1 µM, first compound 0.949 µM) was 11.9%, the viability, T/C (second compound 1 µM, first compound 3 µM) was 0.47% and the viability, T/C [13] was 105%. The viability, T/C [14] was 67.7%, the viability, T/C [15] was 35.5% and the viability, T/C [16] was 23.5%. For the same compound, the viability, T/C (second compound 3.16 µM, first compound 0.949 µM) was 10.8%, the viability, T/C (second compound 3.16 µM, first compound 3 µM) was 0.43% and the viability, T/C [17] was 79.6%. The viability, T/C [18] was 53.2%, the viability, T/C [19] was 30.7% and the viability, T/C [20] was 23.4%. The viability, T/C (second compound 10 µM, first compound 0.949 µM) was 11.6% and the viability, T/C (second compound 10 µM, first compound 3 µM) was 0.29%.
